Source: patent US9102701B2, “17-hydroxy-17-pentafluoroethyl-estra-4,9(10)-diene-11-ethynylphenyl derivatives, methods for the production thereof and use thereof for treating diseases” (Bayer Intellectual Property GmbH, priority 2009, dated 2015)

Columns and labels:
[1] = target: T1, human progesterone receptor B (Homo sapiens, UniProt P06401); test: Progesterone receptor-antagonistic action in stably transfected SK-N-MC cells, PR-B, MMTV-LUC reporter; type: cell-based; conditions: read-out: IC50 PR-B
T1 construct: expressed in transfected cells; host or cells: SK-N-MC human neuroblastoma cells, stably transfected with pRChPR-B-neo and pMMTV-LUC
T1 sequence (P06401 1-933): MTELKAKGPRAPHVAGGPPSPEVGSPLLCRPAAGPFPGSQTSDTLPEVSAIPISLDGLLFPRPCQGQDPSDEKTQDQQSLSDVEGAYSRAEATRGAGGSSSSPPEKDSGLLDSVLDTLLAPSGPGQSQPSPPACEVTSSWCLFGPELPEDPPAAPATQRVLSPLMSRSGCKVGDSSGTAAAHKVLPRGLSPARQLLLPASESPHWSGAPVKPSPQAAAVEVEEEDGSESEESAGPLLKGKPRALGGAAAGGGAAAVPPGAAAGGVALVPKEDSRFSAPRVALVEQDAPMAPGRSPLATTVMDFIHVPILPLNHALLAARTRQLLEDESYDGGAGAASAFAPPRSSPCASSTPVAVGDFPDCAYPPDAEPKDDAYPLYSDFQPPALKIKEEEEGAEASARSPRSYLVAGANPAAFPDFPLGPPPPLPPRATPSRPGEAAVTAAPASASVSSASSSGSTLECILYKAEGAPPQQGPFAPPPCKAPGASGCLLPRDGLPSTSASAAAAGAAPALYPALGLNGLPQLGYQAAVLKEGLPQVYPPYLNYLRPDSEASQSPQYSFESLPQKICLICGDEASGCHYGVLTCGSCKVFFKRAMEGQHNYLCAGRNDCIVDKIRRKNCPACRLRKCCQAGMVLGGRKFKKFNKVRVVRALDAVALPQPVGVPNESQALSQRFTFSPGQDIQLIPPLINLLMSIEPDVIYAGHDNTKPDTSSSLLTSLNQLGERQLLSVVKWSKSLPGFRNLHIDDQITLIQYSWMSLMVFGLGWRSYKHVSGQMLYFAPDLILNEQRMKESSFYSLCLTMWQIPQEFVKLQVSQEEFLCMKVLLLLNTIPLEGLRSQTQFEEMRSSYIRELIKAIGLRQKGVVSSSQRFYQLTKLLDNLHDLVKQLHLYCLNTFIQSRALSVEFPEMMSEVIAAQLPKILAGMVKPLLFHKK
Procedure: (§1) Determination of Progesterone Receptor-Antagonistic Action in Stable Transfectants of Human Neuroblastoma Cells (SK-N-MC Cells) with the Human Progesterone a or Progesterone B Receptor and an MN-LUC Reporter Construct
(§2) SK-N-MC cells (human neuroblastoma cells) which have been stably transfected with plasmids expressing the human progesterone receptor B (pRChPR-B-neo) or the human progesterone receptor A (pRChPR-A-neo) and a reporter construct (pMMTV-LUC) were incubated for 24 hours either in the absence (negative control) or in the presence of ascending amounts of the particular test compound (0.01 nmol/l, 0.1 nmol/l, 1 nmol/l, 10 nmol/l, 100 nmol/l and […]), in order to determine the agonistic efficacy. As a positive control of the reporter gene induction, the cells were treated with the synthetic gestagen promegestone (0.01 nmol/l, 0.1 nmol/l, 1 nmol/l, 10 nmol/l, 100 nmol/l and […]). To determine the antagonistic activity, the cells were treated with 0.1 nmol/l promegestone and additionally with ascending amounts of the particular test compound (0.01 nmol/l, 0.1 nmol/l, 1 nmol/l, 10 nmol/l, 100 nmol/l and […]). The activity of the reporter gene LUC (LUC=luciferase) was determined in the cell lysates and measured as RLU (relative light units). All measurements are reported as % efficacy and as EC50 and IC50 concentrations.

[2] = target: T2, human progesterone receptor A (Homo sapiens, UniProt P06401); test: Progesterone receptor-antagonistic action in stably transfected SK-N-MC cells, PR-A, MMTV-LUC reporter; type: cell-based; conditions: read-out: IC50 PR-A
T2 construct: expressed in transfected cells; host or cells: SK-N-MC human neuroblastoma cells, stably transfected with pRChPR-A-neo and pMMTV-LUC
T2 sequence (P06401 1-769 isoform P06401-2): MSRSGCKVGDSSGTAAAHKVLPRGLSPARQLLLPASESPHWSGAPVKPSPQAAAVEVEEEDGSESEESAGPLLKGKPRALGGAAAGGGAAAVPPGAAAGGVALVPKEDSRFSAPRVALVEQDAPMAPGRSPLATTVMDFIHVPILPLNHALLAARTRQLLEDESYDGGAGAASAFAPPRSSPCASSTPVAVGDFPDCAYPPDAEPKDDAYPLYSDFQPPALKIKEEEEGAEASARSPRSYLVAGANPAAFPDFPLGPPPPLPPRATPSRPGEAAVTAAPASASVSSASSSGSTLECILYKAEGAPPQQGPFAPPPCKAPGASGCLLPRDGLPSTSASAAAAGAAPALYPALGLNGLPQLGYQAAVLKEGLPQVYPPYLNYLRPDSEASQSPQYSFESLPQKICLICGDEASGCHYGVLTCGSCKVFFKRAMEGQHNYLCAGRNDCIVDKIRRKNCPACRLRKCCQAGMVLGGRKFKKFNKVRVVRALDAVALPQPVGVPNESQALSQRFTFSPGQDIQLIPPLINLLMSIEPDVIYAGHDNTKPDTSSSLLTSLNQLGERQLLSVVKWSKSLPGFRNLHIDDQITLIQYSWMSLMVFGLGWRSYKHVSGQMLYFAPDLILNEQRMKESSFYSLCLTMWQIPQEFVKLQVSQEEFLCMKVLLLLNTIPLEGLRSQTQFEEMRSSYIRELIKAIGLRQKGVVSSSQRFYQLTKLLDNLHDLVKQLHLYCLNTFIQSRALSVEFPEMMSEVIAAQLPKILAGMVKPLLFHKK
Procedure: as §1, §2

Row | SMILES | IC50 [1] [nM] | IC50 [2] [nM]
1 | COC(=O)COCC#Cc1ccc([C@H]2C[C@@]3(C)[C@@H](CC[C@@]3(O)C(F)(F)C(F)(F)F)[C@@H]3CCC4=CC(=O)CCC4=C32)cc1 [Example 9, {3-[4-((8S,11R,13S,14S,17S)-17-hydroxy-13-methyl-3-oxo-17-pentafluoroethyl-2,3,6,7,8,11,12,13,14,15,16,17-dodecahydro-1H-cyclopenta[a]phenanthren-11-yl)phenyl]prop-2-ynyloxy}acetic acid methyl ester] | 10 | 8.1
2 | C[C@]12C[C@H](c3ccc(C#CCOC(=O)NCc4ccccc4)cc3)C3=C4CCC(=O)C=C4CCC3C1CC[C@@]2(O)C(F)(F)C(F)(F)F (stereo partly drawn) [Example 50, benzylcarbamic acid 3-[4-((8S,11R,13S,14S,17S)-17-hydroxy-13-methyl-3-oxo-17-pentafluoroethyl-2,3,6,7,8,11,12,13,14,15,16,17-dodecahydro-1H-cyclopenta[a]phenanthren-1′-yl)phenyl]prop-2-ynyl ester] | 0.03 | 0.01
3 | C[C@]12C[C@H](c3ccc(C#CCNC(=O)NCc4ccccc4)cc3)C3=C4CCC(=O)C=C4CCC3C1CC[C@@]2(O)C(F)(F)C(F)(F)F (stereo partly drawn) [Example 39, 1-benzyl-3-{3-[4-((8S,11R,13S,14S,17S)-17-hydroxy-13-methyl-3-oxo-17-pentafluoroethyl-2,3,6,7,8,11,12,13,14,15,16,17-dodecahydro-1H-cyclopenta[a]phenanthren-1′-yl)phenyl]prop-2-ynyl}urea] | 0.1 | 0.1
4 | CC(C)NC(=O)NCC#Cc1ccc([C@H]2C[C@@]3(C)[C@@H](CC[C@@]3(O)C(F)(F)C(F)(F)F)[C@@H]3CCC4=CC(=O)CCC4=C32)cc1 [Example 29, 1-{3-[4-((8S,11R,13S,14S,17S)-17-hydroxy-13-methyl-3-oxo-17-pentafluoroethyl-2,3,6,7,8,11,12,13,14,15,16,17-dodecahydro-1H-cyclopenta[a]phenanthren-11-yl)phenyl]prop-2-ynyl}-3-isopropylurea] | 0.1 | 0.1
5 | CC(C)(C)NC(=O)NCC#Cc1ccc([C@H]2C[C@@]3(C)[C@@H](CC[C@@]3(O)C(F)(F)C(F)(F)F)[C@@H]3CCC4=CC(=O)CCC4=C32)cc1 [Example 40, 1-{3-[4-((8S,11R,13S,14S,17S)-17-hydroxy-13-methyl-3-oxo-17-pentafluoroethyl-2,3,6,7,8,11,12,13,14,15,16,17-dodecahydro-1H-cyclopenta[a]phenanthren-11-yl)phenyl]prop-2-ynyl}-3-tert-butylurea] | 0.3 | 0.1
6 | C=CCNC(=O)NCC#Cc1ccc([C@H]2C[C@@]3(C)[C@@H](CC[C@@]3(O)C(F)(F)C(F)(F)F)[C@@H]3CCC4=CC(=O)CCC4=C32)cc1 [Example 41, 1-allyl-3-{3-[4-((8S,11R,13S,14S,17S)-17-hydroxy-13-methyl-3-oxo-17-pentafluoroethyl-2,3,6,7,8,11,12,13,14,15,16,17-dodecahydro-1H-cyclopenta[a]phenanthren-1′-yl)phenyl]prop-2-ynyl}urea] | 0.1 | 0.1
7 | C[C@]12C[C@H](c3ccc(C#CCOC(=O)Nc4cccnc4)cc3)C3=C4CCC(=O)C=C4CC[C@H]3[C@@H]1CC[C@@]2(O)C(F)(F)C(F)(F)F [Example 57, 3-pyridylcarbamic acid 3-[4-((8S,11R,13S,14S,17S)-17-hydroxy-13-methyl-3-oxo-17-pentafluoroethyl-2,3,6,7,8,11,12,13,14,15,16,17-dodecahydro-1H-cyclopenta[a]phenanthren-1′-yl)phenyl]prop-2-ynyl ester] | 0.08 | 0.01
8 | CCOC(=O)CNC(=O)NCC#Cc1ccc([C@H]2C[C@@]3(C)C(CC[C@@]3(O)C(F)(F)C(F)(F)F)C3CCC4=CC(=O)CCC4=C32)cc1 (stereo partly drawn) [Example 42, (3-{3-[4-((8S,11R,13S,14S,17S)-17-hydroxy-13-methyl-3-oxo-17-pentafluoroethyl-2,3,6,7,8,11,12,13,14,15,16,17-dodecahydro-1H-cyclopenta[a]phenanthren-1′-yl)phenyl]prop-2-ynyl}ureido)acetic acid ethyl ester] | 0.8 | 0.7
9 | C[C@]12C[C@H](c3ccc(C#CCOCC#N)cc3)C3=C4CCC(=O)C=C4CCC3C1CC[C@@]2(O)C(F)(F)C(F)(F)F (stereo partly drawn) [Example 14, {3-[4-((8S,11R,13S,14S,17S)-17-hydroxy-13-methyl-3-oxo-17-pentafluoroethyl-2,3,6,7,8,11,12,13,14,15,16,17-dodecahydro-1H-cyclopenta[a]phenanthren-1′-yl)phenyl]prop-2-ynyloxy}acetonitrile] | 0.1 | 0.1
10 | CC(C)(O)C#Cc1ccc([C@H]2C[C@@]3(C)[C@@H](CC[C@@]3(O)C(F)(F)C(F)(F)F)[C@@H]3CCC4=CC(=O)CCC4=C32)cc1 [Example 21, (8S,11R,13S,14S,17S)-17-hydroxy-11-[4-(3-hydroxy-3-methylbut-1-ynyl)phenyl]-13-methyl-17-pentafluoroethyl-1,2,6,7,8,11,12,13,14,15,16,17-dodecahydrocyclopenta[a]phenanthren-3-one] | 1 | 0.36
11 | COC(=O)c1ccc(C#Cc2ccc([C@H]3C[C@@]4(C)[C@@H](CC[C@@]4(O)C(F)(F)C(F)(F)F)[C@@H]4CCC5=CC(=O)CCC5=C43)cc2)cc1 [Example 15, 4-[4-((8S,11R,13S,14S,17S)-17-hydroxy-13-methyl-3-oxo-17-pentafluoroethyl-2,3,6,7,8,11,12,13,14,15,16,17-dodecahydro-1H-cyclopenta[a]phenanthren-11-yl)phenylethynyl]benzoic acid methyl ester] | 1 | 0.7
12 | C[C@]12C[C@H](c3ccc(C#CCOC(=O)Nc4ccc(N5CCCCC5)cc4)cc3)C3=C4CCC(=O)C=C4CCC3C1CC[C@@]2(O)C(F)(F)C(F)(F)F (stereo partly drawn) [Example 54, (4-piperidin-1-ylphenyl)carbamic acid 3-[4-((8S,11R,13S,14S,17S)-17-hydroxy-13-methyl-3-oxo-17-pentafluoroethyl-2,3,6,7,8,11,12,13,14,15,16,17-dodecahydro-1H-cyclopenta[a]phenanthren-1′-yl)phenyl]prop-2-ynyl ester] | 0.09 | 0.1
